Data reported in PubChem BioAssay (NCI).
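Five concentrations, 48 hours, 96-well plates. Here, GI50 denotes the concentration required for 50% inhibition of growth. Definition used: TGI = concentration required for complete inhibition of growth.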

What was measured:
Experiment in all cases: inhibition of tumour cell growth, NCI panel, 48 h
UO-31 renal = tested on: UO-31 renal
MOLT-4 leukemia = tested on: MOLT-4 leukemia
HOP-62 NSCLC = tested on: HOP-62 NSCLC
SF-295 CNS = tested on: SF-295 CNS
U251 CNS = tested on: U251 CNS
A549 NSCLC = tested on: A549 NSCLC
K-562 leukemia = tested on: K-562 leukemia
M14 melanoma = tested on: M14 melanoma
HT29 colon = tested on: HT29 colon
UACC-257 melanoma = tested on: UACC-257 melanoma

SMILES	TGI (UO-31 renal) [µM]	TGI (MOLT-4 leukemia) [µM]	TGI (HOP-62 NSCLC) [µM]	TGI (SF-295 CNS) [µM]	TGI (U251 CNS) [µM]	TGI (A549 NSCLC) [µM]	TGI (K-562 leukemia) [µM]	TGI (M14 melanoma) [µM]	TGI (HT29 colon) [µM]	TGI (UACC-257 melanoma) [µM]	GI50 (UACC-257 melanoma) [µM]	GI50 (UO-31 renal) [µM]	GI50 (HT29 colon) [nM]	GI50 (HOP-62 NSCLC) [µM]	GI50 (SF-295 CNS) [µM]	GI50 (A549 NSCLC) [nM]	GI50 (M14 melanoma) [nM]	GI50 (MOLT-4 leukemia) [nM]	GI50 (K-562 leukemia) [nM]	GI50 (U251 CNS) [nM]
CCCCCCCC(=O)OCC(COC(=O)C(C)(C)C)OC(=O)Cc1ccccc1 (stereo not drawn)	> 100	> 100	> 100	> 100	> 100	> 100	> 100	> 100	–	–	–	–	–	–	–	–	–	–	–	–
Cc1nnc2n(c1=O)CCCN2C	> 100	> 100	> 100	> 100	> 100	> 100	> 100	> 100	> 100	–	–	–	–	–	–	–	–	–	–	–
Nc1ncnc2c1nnn2C1C=CC(CP(=O)(O)O)C1 (stereo not drawn)	> 100	> 100	> 100	> 100	> 100	> 100	–	> 100	> 100	> 100	–	–	–	–	–	–	–	–	–	–
CC(=O)c1ccc(Oc2c3ccccc3nc3ccccc23)cc1	13.2	–	29.5	28.2	25.9	31.7	20.1	14.6	6.69	15.4	–	–	–	–	–	–	–	–	–	–
CCCCCCCCCCCCCCCCCCOc1ccccc1CC(=O)NCC[N+]1(C)CCOCC1	37.2	–	26.8	49.2	–	26.3	–	> 100	5.19	35.3	18.9	5.83	2050	4.01	4.99	4390	4320	–	–	–
Cc1nc2ccc(Cl)cc2c(-n2ccnc2)c1CCn1ccnc1	74.6	–	> 100	> 100	> 100	> 100	89.3	> 100	41.7	61	–	–	–	–	–	–	–	–	–	–
C[C@@H]1CC[C@@]2(C)C(C(=O)O)=CCCC2[C@@]1(C)CC(=O)c1ccoc1 (stereo partly drawn)	> 25	> 25	–	> 25	> 25	> 25	–	> 25	> 25	> 25	–	–	–	–	–	–	–	–	–	–
COc1cc(C)c(CC/C(C)=C/Cc2cc(O)ccc2O)c(C)c1C	> 25	> 25	–	> 25	> 25	> 25	> 25	> 25	> 25	–	–	–	–	–	–	–	–	–	–	–
CSCC[C@@H](NC(=O)[C@H](CC(C)C)NC(=O)C(Cc1cnc[nH]1)NC(=O)CNC(=O)[C@@H](NC(=O)[C@H](C)NC(=O)[C@H](Cc1c[nH]c2ccccc12)NC(=O)[C@H](CCC(N)=O)NC(=O)[C@@H](N)CC(N)=O)C(C)C)C(N)=O (stereo partly drawn)	> 100	> 100	> 100	> 100	> 100	> 100	> 100	–	> 100	> 100	–	–	–	–	–	–	–	–	–	–
c1ccc(-c2c(-c3ccccc3)[n+](Cc3ccc4ccccc4c3)c(-c3ccc(-c4nc5ccccc5s4)cc3)n2Cc2ccc3ccccc3c2)cc1	0.872	0.759	–	–	–	1.55	3.79	–	–	–	–	0.28	–	–	–	176	–	139	94.5	–
CN(C)C(=O)C(F)(F)C(c1ccc(F)cc1)C1C(=O)N(C)C(=O)N(C)C1=O (stereo not drawn)	> 100	> 100	> 100	> 100	> 100	> 100	–	> 100	–	> 100	–	–	–	–	–	–	–	–	–	–
Cc1c2cccc-2c2cc(O)c3ccccc3c2n1-c1ccc(N(C)C)cc1	24.8	–	27.9	22.5	25.9	31.6	26.8	27.9	31.4	> 100	–	–	–	–	–	–	–	–	–	–
Cc1ccc(-c2cc(-c3ccco3)c(C#N)c(=S)[nH]2)cc1	> 100	> 100	> 100	> 100	62.9	> 100	> 100	> 100	> 100	–	–	–	–	–	–	–	–	–	–	–
NCCN1CCCCCc2ccccc21	> 10	> 10	> 10	> 10	> 10	> 10	> 10	–	> 10	> 10	–	–	–	–	–	–	–	–	–	–
COc1cc2nc(-c3ccc(Cl)cc3)cc(OCCCN3CCOCC3)c2cc1OC	–	> 100	–	2.84	> 100	> 100	> 100	2.7	> 100	–	–	–	610	–	1.08	2020	545	2850	2710	1920
CN(C)CCNC(=O)c1cccc2c1Nc1ccccc1S2	21.8	29.5	33.4	27.7	26.9	28.8	36.2	–	25	27	–	–	–	–	–	–	–	–	–	–
O=C1C=CC2(O[C@H](c3ccccc3)[C@@H](c3ccccc3)O2)[C@H](Sc2ccccc2O)C1	1.22	–	3.98	15.6	1.78	16.4	78.2	0.609	1.45	1.71	–	–	–	–	–	–	–	–	–	–
